# Data: US20210283110A1, “COMPOUND FOR USE IN THE TREATMENT OF A DISEASE CHARACTERIZED BY DYSREGULATED MUCUS PRODUCTION AND/OR SECRETION” (UNIVERSITÄT REGENSBURG, priority 2018, published 2021)
# “Also recorded” adds a separate entry of the source.
# Tests used:
# TMEM16F = target: T1, TMEM16F (Homo sapiens, UniProt Q4KMQ2); assay: Whole cell currents in HEK293 cells expressing TMEM16F (patch clamp); assay type: cell-based; conditions: overexpressed TMEM16F; niclosamide 1 μM
# T1 construct: expressed in transfected cells; host or cells: HEK293 cells
# T1 sequence (Q4KMQ2 1-910): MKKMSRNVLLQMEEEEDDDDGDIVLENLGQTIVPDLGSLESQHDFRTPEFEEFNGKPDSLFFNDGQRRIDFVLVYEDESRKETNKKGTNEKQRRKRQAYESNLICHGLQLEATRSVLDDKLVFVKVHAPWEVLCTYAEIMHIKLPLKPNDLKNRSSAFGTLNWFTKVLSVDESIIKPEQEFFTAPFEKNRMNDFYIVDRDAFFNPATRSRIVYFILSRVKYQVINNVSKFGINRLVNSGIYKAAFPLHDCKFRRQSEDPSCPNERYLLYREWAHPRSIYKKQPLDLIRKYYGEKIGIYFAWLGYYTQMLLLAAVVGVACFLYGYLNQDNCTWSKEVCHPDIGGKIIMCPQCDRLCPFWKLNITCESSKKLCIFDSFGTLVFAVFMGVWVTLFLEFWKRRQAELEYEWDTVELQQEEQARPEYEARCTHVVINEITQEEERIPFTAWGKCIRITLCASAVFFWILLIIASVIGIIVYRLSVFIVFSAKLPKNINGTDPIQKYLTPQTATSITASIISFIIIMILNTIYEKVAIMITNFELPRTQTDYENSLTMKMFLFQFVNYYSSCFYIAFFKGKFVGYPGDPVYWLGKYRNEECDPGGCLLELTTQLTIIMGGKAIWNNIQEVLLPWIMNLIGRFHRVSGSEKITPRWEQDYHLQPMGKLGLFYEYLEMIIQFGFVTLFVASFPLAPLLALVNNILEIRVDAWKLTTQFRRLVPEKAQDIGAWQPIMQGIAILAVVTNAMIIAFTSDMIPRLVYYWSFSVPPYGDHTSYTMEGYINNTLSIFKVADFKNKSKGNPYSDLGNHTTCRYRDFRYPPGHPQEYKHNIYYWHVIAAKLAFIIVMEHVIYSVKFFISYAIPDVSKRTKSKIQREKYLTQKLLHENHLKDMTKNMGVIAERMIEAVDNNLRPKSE
# Description: FIG. 14: The TMEM16-inhibitor niflumic acid attenuates inflammatory airway disease. • A,B) OVA-sensitization induced pronounced goblet cell metaplasia as indicated by alcian blue positivity. Exposure to carbachol (CCH, 25 mg/ml, nebulizer) induced release of mucus and airway […]. Bars indicate […]. […] Mean±SEM; *significant inhibition by NFA (paired ttest). # significant difference when compared to OVA (unpaired t-test). (n) number of airways analysed or number of cells examined.
# FIG. 15: Inhibition of TMEM16A and TMEM16F by niclosamide. • A) TMEM16A whole cell currents in overexpressing HEK293 cells. […]
# OVA-induced allergic airway inflammation in mice caused pronounced airway goblet cell metaplasia. […] The two main TMEM16 paralogs expressed in airway epithelial and smooth muscle cells, TMEM16A and TMEM16F, were expressed in HEK293 cells and the whole cell currents upon activation by the Ca^2+ ionophore ionomycin (Iono) were measured. […]
# Similar to TMEM16A, also overexpressed TMEM16F was inhibited by niclosamide (FIG. 15D). […] TMEM16A was activated by ionomycin and TMEM16A currents were measured as iodide quenching.
# TMEM16A = target: T2, TMEM16A (Homo sapiens, UniProt Q5XXA6); assay: ATP-induced current in HT29 cells expressing TMEM16A, patch clamp; assay type: cell-based; parameters: expressed in transfected cells; conditions: 1 μM compound applied simultaneously with ATP (wo μM), #p<0.01
# T2 sequence (Q5XXA6 1-986): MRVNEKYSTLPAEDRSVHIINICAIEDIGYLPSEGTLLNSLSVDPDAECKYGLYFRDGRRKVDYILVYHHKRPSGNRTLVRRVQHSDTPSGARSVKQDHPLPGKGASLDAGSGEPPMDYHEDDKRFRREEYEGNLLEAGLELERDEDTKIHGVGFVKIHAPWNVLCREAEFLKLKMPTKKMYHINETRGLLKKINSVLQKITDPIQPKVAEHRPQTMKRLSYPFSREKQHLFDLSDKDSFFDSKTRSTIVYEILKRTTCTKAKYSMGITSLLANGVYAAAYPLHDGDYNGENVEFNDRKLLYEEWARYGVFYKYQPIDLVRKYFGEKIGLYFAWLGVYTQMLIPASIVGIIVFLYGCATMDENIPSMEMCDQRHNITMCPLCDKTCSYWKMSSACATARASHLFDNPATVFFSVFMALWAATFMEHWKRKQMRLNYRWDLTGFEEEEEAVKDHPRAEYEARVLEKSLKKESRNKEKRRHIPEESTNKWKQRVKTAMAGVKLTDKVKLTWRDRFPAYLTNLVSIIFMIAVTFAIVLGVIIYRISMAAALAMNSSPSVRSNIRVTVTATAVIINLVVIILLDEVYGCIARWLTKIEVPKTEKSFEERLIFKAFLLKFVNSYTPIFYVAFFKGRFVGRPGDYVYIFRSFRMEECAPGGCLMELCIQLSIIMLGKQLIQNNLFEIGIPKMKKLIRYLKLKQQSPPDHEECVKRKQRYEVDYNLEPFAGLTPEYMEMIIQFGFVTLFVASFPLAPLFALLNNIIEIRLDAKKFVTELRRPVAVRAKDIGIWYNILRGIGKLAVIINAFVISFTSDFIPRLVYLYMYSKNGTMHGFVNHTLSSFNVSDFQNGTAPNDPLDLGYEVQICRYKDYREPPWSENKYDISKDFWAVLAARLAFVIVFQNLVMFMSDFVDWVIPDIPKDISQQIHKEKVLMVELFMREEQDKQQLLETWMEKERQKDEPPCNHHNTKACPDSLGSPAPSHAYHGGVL
# Source text: FIG. 2: ATP-induced current in HT29 cells expressing TMEM16A in an electrophysiological patch clamp investigation.
# ATP was applied at a concentration of wo μM.
smiles,measurement,setting,value
"O=C(Nc1ccc([N+](=O)[O-])cc1Cl)c1cc(Cl)ccc1O [niclosamide, 5-chloro-N-(2-chloro-4-nitrophenyl)-2-hydroxybenzamide]",TMEM16F current (current/voltage relationship),TMEM16F,inhibited; also recorded: inhibition
same,ATP-induced ion current arising from TMEM16A activation,TMEM16A,significantly reduced
